According to patent publication US20240382434A1, “CARYOPHYLLENE-CONTAINING COMPOSITION” (SUNSHO PHARMACEUTICAL CO., LTD., priority 2021, published 2024):

Tests used:
Type in all cases: physicochemical
Conditions in all cases: conclusion in words
[1] = Experiment 2: Dissolution of menthol
Experimental: The amounts (parts by mass (pbm)) of the ingredients shown in the table below were placed into 20-mL lidded glass bottles.
The lidded glass bottles were placed into a water bath set at 25° C. After the temperature reached 25° C., the bottles were kept warm for 30 minutes to adjust the temperature.
The temperature was continuously kept at 25° C. With every 20 minutes, the lidded glass bottles were inverted for mixing and checked visually to see if the menthol had dissolved. The time to complete dissolution was recorded as the time required for the menthol to dissolve. Check was made every 20 minutes until 360 minutes had passed, and then 3 days later, visual check was made again. When the menthol had not dissolved after 3 days, the result was recorded as non-dissolved.

[2] = Experiment 3: Freezing resistance
Experimental: The amounts (parts by mass (pbm)) of the ingredients shown in the table below were mixed and placed into 20-mL lidded glass bottles to dissolve into solutions. The lidded glass bottles were placed into a water bath set at 25° C. After the temperature reached 25° C., the bottles were kept warm for 30 minutes to adjust the temperature.
Then, the glass bottles were placed in a freezer (at approximately −20° C.). The freezer was opened every 30 minutes to visually check if each solution had solidified. The time point when the solution was partially solidified and the time point when the solution was completely solidified were recorded. Check was made every 30 minutes until 360 minutes had passed, and then 3 days later, visual check was made again. When the menthol had not solidified after 3 days, the result was recorded as non-solidified.

[3] = Experiment 1: Volatilization of menthol
Experimental: The prepared compositions were placed in petri dishes and used as test samples.
Each test sample was allowed to volatilize without being covered under room temperature conditions for a certain period of time. The mass of each test sample was measured at a given time point. The volatilization amount and rate were calculated from the measured values.
Similarly, the volatilization amount and rate of a test sample using only caryophyllene were also calculated.
The time constant was calculated from the measurement results [by subtracting the volatilization amount of caryophyllene (theoretical value)].
In the table, the unit of the time constant is hour (h) (the same applies hereinafter).

Substance: Caryophyllene
- Effect on dissolution of menthol [1]: enhanced dissolution of menthol
- Effect on freezing resistance of the MCT [2]: improved freezing resistance of the MCT
- Effect on volatilization of menthol [3]: enhances volatilization of menthol
